Earlier results, collected in publication PMC3779694 (Hepatology (Baltimore, Md.), 2011).

Tested on: subjects with a variety of chronic liver diseases, mostly chronic hepatitis C
Details: five subjects with NASH, 14-day regimen; cited from earlier work

In the case of `C[C@H](NC(=O)C(=O)Nc1ccccc1C(C)(C)C)C(=O)N[C@@H](CC(=O)O)C(=O)COc1c(F)c(F)cc(F)c1F` [IDN-6556], the “ALT reduction in subjects with NASH” value is listed as 59%.
